US20250346890A1, “LEUKEMIA TREATMENT” (Deutsches Krebsforschungszentrum, priority 2019, published 2025)

Tests used:
ID1 = experiment: qRT-PCR analysis of ID1 in THP-1 cells; assay type: cell-based, human; details: ATRA treatment
Protocol: (§1) Cultured cells were lysed in Macherey-Nagel RAI buffer containing 1% β-mercaptoethanol and total RNAs were isolated using NucleoSpin RNA isolation kit (Macherey-Nagel 740955). Reverse transcription and PCR amplification were performed. Primers used in this study are listed in Supplementary Table 1. Graphs show relative gene expressions to GAPDH. […] Statistical analyses were performed using PRISM7 software with unpaired t-test or one-way ANOVA test.

THP-1 cells = experiment: Monocyte-macrophage differentiation of THP-1 cells (FACS / qRT-PCR of CD14, CD11B); assay type: cell-based, human
Protocol: as §1
For analyzing macrophage differentiation of THP-1, cells were harvested, pelleted and resuspended in ice-cold blocking buffer (PBS supplemented with 1% BSA and 0.1% NaN3). Cells were treated with Fc Receptor Binding Inhibitor as recommended by the manufacturer (eBioscience 14916173) and stained directly with FITC/APC-conjugated antibodies diluted in blocking buffer or with non-conjugated primary antibodies followed by fluorochrome-labeled secondary antibodies. Isotype-matched antibodies were used as controls. Dead cells were excluded by counterstaining with propidium iodide. For analyzing apoptosis of THP-1, cells were fixed in 4% PFA, permeabilized by MeOH and blocked with PBS supplemented with 1% BSA and 0.1% Tween-20. Cells were stained with anti-active Caspase-3 antibody and fluorochrome-labeled secondary antibody. FACS Samples were analyzed with FACSCalibur or FACSCanto (BD Biosciences). 10,000 events per samples were acquired, and results were processed with Cell Quest or FACSDiva software (BD Biosciences). For BMP4 stimulation, cells were treated with 5 and 25 ng ml^−1 recombinant human BMP4 protein (R&D systems 314-BP). 100, 300 and 1000 nM LDN […] (Tocris 6053) were used for rescue assay. For the THP-1 cell number quantification and differentiation validation in vivo, bone marrow cells were harvested from tibias of NSG mice and red blood cells were removed by ACK Lysing Buffer (Gibco A1049201). Cells were stained and analyzed as above. Here, 50,000 PI-negative events per samples were acquired.
(§2) THP-1 cells were treated with 0.3, 1.0 and 3.0 μg ml^−1 goat polyclonal anti-RSPO2 antibodies (R&D systems AF3266) or goat polyclonal GFP antibodies (ABIN 100085). After 48 hours, medium was replaced including fresh antibodies—and incubated another 24 hours. Western blot analysis and FACS analyses were performed as discussed above.
The sequences of shRSPO2 and shControl (Table 1) were synthesized, inserted into the transfer plasmid Tet-pLKO-puro (Addgene 21915) and validated by sequencing. Lentivirus was produced with the 3rd generation lentiviral system according to the protocol available at the Trono lab as described (www.epfl.ch/labs/tronolab/). THP-1 cells were infected with lentivirus with 8 μg ml^−1 Polybrene (Sigma TR-1003) and selected with 0.5 μg ml^−1 puromycin (Calbiochem 540411). Single cell clones were obtained by limiting dilutions. The shRNA expression of clones was validated by monitoring RSPO2 expression after doxycycline treatment (1.0 μg ml^−1) for 3 days.

Smad1 = experiment: Western blot of pSmad1 and tSmad1 in THP-1 cells; assay type: cell-based, human; details: THP-1 cells
Protocol: Cultured cells were rinsed with cold PBS and lysed in Triton lysis buffer ([…] Tris-Cl, pH 7.5, 1% Triton X-100, 150 mM NaCl, 1 mM EDTA, 1 mM EGTA, 1 mM β-glycerophosphate, 1 mM Na3 VO4) or RIPA buffer with complete Protease Inhibitor Cocktail (Roche 11697498001). Lysates were mixed with Laemmli buffer with β-mercaptoethanol and boiled at 95° C. for 5 min to prepare SDS-PAGE samples. Western blot images were acquired with SuperSignal West pico ECL (ThermoFisher 34580) or Clarity Western ECL (Biorad 1705061) using LAS-3000 system (FujiFilm). Quantification of blots was done using ImageJ software.
as §2

BMP signaling = experiment: BMP-reporter assay in Xenopus embryos; assay type: in vivo, Xenopus laevis
Protocol: In vitro fertilization, microinjection and culture of Xenopus embryos were performed as previously described (Gawantka et al. (1995), EMBO J 14, 6268-6279). X. laevis embryos were microinjected with reporter DNAs, in vitro transcribed mRNAs or antisense morpholino oligonucleotide (Mo) using Harvard Apparatus microinjection system. Mos for rspo2 (Kazanskaya et al (2004, loc. cit.), lrp6, chordin, bmp4, znrf3 and standard control were purchased from GeneTools. rspo2^ΔTSP Mo was designed based on rspo2 sequence. X. laevis 4-cell stage embryos were microinjected 5 nl per each blastomere equatorially and cultured until indicated stages. Equal amount of total mRNA or Mo were injected by adjustment with ppl or standard control Mo. Scoring of phenotypes was executed blind, and data are representative images from two independent experiments. Embryos in each image were selected using Magnetic Lasso tool or Magic Wand tool of Adobe Photoshop CS6 software, and pasted into the uniform background color for presentation. Statistical analyses show Chi-square tests.

ALK3 = experiment: Western blot analysis of ALK3 in injected Xenopus embryos; assay type: in vivo, Xenopus laevis; details: Xenopus embryos coinjected with alk3-EYFP mRNA
Protocol: Injected Xenopus embryos were harvested at stage 15 to 18, homogenized in NP-40 lysis buffer (2% NP-40, 20 mM Tris-HCl pH 7.5, 150 mM NaCl, 10 mM NaF, 10 mM Na3VO4, 10 mM sodium pyrophosphate, 5 mM EDTA, 1 mM EGTA, 1 mM PMSF, and complete Protease Inhibitor Cocktail with a volume of 20 μl per embryo. Lysates were cleared with CFC-113 (Honeywell 34874), followed by centrifugation (14,000 rpm, 10 min at 4° C.), boiling at 95° C. for 5 min with NuPAGE Sample Buffer. 0.5-1 embryos per lane were loaded for SDS-PAGE analysis.

AML cells = experiment: Cytarabine (AraC) treatment of THP-1 TetOn-shRNA clones; assay type: cell-based; details: Dox and AraC treatment
[1] = target: T1, human ALK3-HA expressed in HEK293T cells (human, UniProt P36894 24-532); experiment: cell surface binding assay on HEK293T cells transfected with human ALK3-HA
T1 construct: whole, on cells; also called HA-tagged ALK3; BMPR1A
Protocol: Cell surface binding assays were carried essentially out as previously described (Dosch et al. (1997), Development 124, 2325-2334). In brief, human ALK3-HA and Xenopus tropicalis LGR4 DNA were transfected in HEK293T cells, and incubated with 1.5 U ml⁻¹ conditioned media for 3 hours on ice. After several washes and crosslinking, cells were treated with 2 mM Levamisole for 20 min to inactivate endogenous AP activities and developed with BM-Purple (Sigma 11442074001). Cells were mounted with Fluoromount G. Images were obtained using LEICA DMIL microscope/Canon DS126311 camera.

[2] = target: T2, recombinant human RSPO2 (Peprotech 120-43) (human, UniProt Q6UXX9 22-243); experiment: in vitro binding assay: plate-coated recombinant RSPO2, ALK3^ECD-AP conditioned medium, bound AP chemiluminescence; Scatchard plot
T2 construct: also called R-spondin 2
Protocol: High binding 96-well plates (Greiner M5811) were coated with 2 μg ml⁻¹ of recombinant human RSPO1 (Peprotech 120-38), RSPO2 (Peprotech 120-43), RSPO3 (Peprotech 120-44) or FGF8b (Peprotech 100-25) recombinant protein reconstituted in bicarbonate coating buffer (50 mM NaHCO₃, pH 9.6) overnight at 4° C. Coated wells were washed three times with TBST (TBS, 0.1% Tween-20) and blocked with 5% BSA in TBST for 1 hour at room temperature. 1.5 U ml⁻¹ of ALK3^ECD-AP or control conditioned medium was incubated overnight at 4° C. Wells were washed six times with TBST and bound AP activity was measured by the chemiluminescent SEAP Reporter Gene Assay kit (Abcam ab 133077). For ZNRF3-ALK3 binding assay, plates were coated with recombinant human ZNRF3 Fc Chimera protein (R&D systems 7994-RF). ALK3^ECD-AP was preincubated with RSPO2-Flag, RSPO2^ΔTSP-Flag conditioned medium or recombinant RSPO protein prior to treatment. Control conditioned medium and vesicles were used as control. […] Statistical analyses show unpaired t-tests.

Q: For `CC1=C(/C=C/C(C)=C/C=C/C(C)=C/C(=O)O)C(C)(C)CCC1` [ATRA, (2E,4E,6E,8E)-3,7-dimethyl-9-(2,6,6-trimethylcyclohexen-1-yl) nona-2,4,6,8-tetraenoic acid], which ID1 expression (ID1) is on record?
A: induced

Q: What about the “macrophage differentiation, combination with Dox-induced shRSPO2” value (THP-1 cells; THP-1 TetOn-shRSPO2 clones, Dox+ATRA) of the same molecule?
A: cooperated in inducing macrophage differentiation

Q: What about the CD11B expression (THP-1 cells; THP-1 cells, ATRA treatment) of the same molecule?
A: induced

Q: What about the Smad1-phosphorylation (Smad1) of the same molecule?
A: induced Smad1-phosphorylation

Q: For “rspo2 Mo: antisense morpholino against Xenopus rspo2, GCCGTCCAAATGCAGTTTCAAC (SEQ ID NO:9) (all phosphorodiamidate morpholino (PMO))”, which “endogenous BMP signaling” value (BMP signaling; Xenopus neurulae, injection) is on record?
A: increased endogenous BMP signaling

Q: What about the “BMP signaling reporter, coinjection of bmp4 Mo and rspo2 Mo” value (BMP signaling; coinjection with bmp4 Mo) of the same molecule?
A: canceled each other out

Q: And the ALK3-EYFP protein levels (ALK3)?
A: increased ALK3-EYFP protein levels

Q: `Nc1ccn([C@@H]2O[C@H](CO)[C@@H](O)[C@@H]2O)c(=O)n1` [cytarabine] was tested. Which “sensitivity of AML cells to cytarabine upon loss of RSPO2” value (AML cells) did it give?
A: sensitize

B1: RSPO2^ΔTSP (human RSPO2 TSP1 domain deletion mutant) (ligand, not shown: small tags and cut ends)
chain: QGNRWRRSKRASYVSNPICKGCLSCSKDNGCSRCQQKLFFFLRREGMRQYGECLHSCPSGYYGHRAPDMNRCARCRIENCDSCFSKDFCTKCKVGFYLHRGRCFDECPDGFAPLEETMECVE
notes: also called RSPO2^ΔTSP-Flag
Q: Does B1 bind [1]?
A: no binding (tested: 1.5 U ml^-1 conditioned media)

B2: ALK3^ECD-AP (extracellular domain of ALK3 fused to alkaline phosphatase, conditioned medium) (receptor, UniProt P36894 24-152, looked up)
chain: QNLDSMLHGTGMKSDSDQKKSENGVTLAPEDTLPFLKCYCSGHCPDDAINNTCITNGHCFAIIEEDDQGETTLASGCMKYEGSDFQCKDSPKAQLRRTIECCRTNLCNQYLQPTLPPVVIGPFFDGSIR
notes: extracellular domain; also called BMPR1A extracellular domain; not shown: alkaline phosphatase (AP) fusion partner from AP-pCS2+
Q: For B2, which Kd [2] is on record?
A: ~4.8 nM
